These results are taken from PubChem BioAssay (NCI).

Test systems include HT29 colon; SF-295 CNS; UO-31 renal; RPMI-8226 leukemia; 786-0 renal; SK-MEL-2 melanoma; HCC-2998 colon; RXF 393 renal; BT-549 breast; CCRF-CEM leukemia.
What all share (experiment): NCI tumour cell line growth inhibition, 48 h

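Where inhibition never reached the appropriate level, the endpoint shown equals the highest concentration tested. Otherwise, values were interpolated linearly from a five-concentration, 48-hour dose response in 96-well plates. GI50 marks 50% less growth. At the TGI there is no net growth.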 Where only a bound is given, the exact number is not on record here.

For `COc1cc2c(/C=C3/C(=O)Nc4c3ccc3ccccc43)c(Cl)[nH]c2cc1C`, the GI50 was 0.0246 µM in the test with HT29 colon; 0.00761 µM with SF-295 CNS; 0.0216 µM with UO-31 renal; 0.0144 µM in the test on RPMI-8226 leukemia; 0.0598 µM with 786-0 renal; 0.872 µM with SK-MEL-2 melanoma. For the same compound, the GI50 with HCC-2998 colon was less than 0.005 µM; in the test on RXF 393 renal, 0.0999 µM; with BT-549 breast it was 0.0254 µM. The TGI was greater than 50 µM in the test on HT29 colon; 0.0237 µM in the test with SF-295 CNS; greater than 34.1 µM in the test with UO-31 renal; greater than 24.2 µM with 786-0 renal; greater than 30.1 µM in the test on SK-MEL-2 melanoma; less than 0.005 µM in the test with HCC-2998 colon. The TGI in the test on RXF 393 renal is 33.4 µM; with BT-549 breast, greater than 50 µM.
For the compound `COC(=O)/C(Br)=C/c1c[nH]c2ccc(Br)cc12`, the GI50 was 11 µM in the test with HT29 colon; 12.4 µM with SF-295 CNS; 6.36 µM with UO-31 renal; 4.87 µM with CCRF-CEM leukemia; 13 µM with 786-0 renal; 6.9 µM in the test with SK-MEL-2 melanoma. Further, the values for the GI50 in the test on HCC-2998 colon and with BT-549 breast were 15.9 µM and 11.2 µM, respectively. In addition, the TGI in the test with HT29 colon stood at 24.8 µM; in the test with SF-295 CNS it was 27.3 µM; with UO-31 renal, 30.1 µM; in the test with CCRF-CEM leukemia, 22.8 µM; in the test on 786-0 renal, 35.9 µM; in the test with SK-MEL-2 melanoma it was 25.4 µM. Besides, the TGI in the test with HCC-2998 colon was 30.4 µM; in the test with BT-549 breast, 23.6 µM.
In the case of `Cc1cc(Cl)ccc1Nc1nc(C(F)(F)F)ccc1C(=O)N/N=C/c1ccc(F)cc1`, the GI50 in the test with HT29 colon is 2.83 µM; in the test on SF-295 CNS it was 0.71 µM; in the test with UO-31 renal, 1.71 µM; with CCRF-CEM leukemia, 0.528 µM; in the test with RPMI-8226 leukemia, 1.79 µM; in the test with 786-0 renal, 1.45 µM. The GI50 with SK-MEL-2 melanoma was 1.84 µM; in the test with HCC-2998 colon it was 1.1 µM; in the test on BT-549 breast it was 1.06 µM. Also, the TGI amounted to 10.3 µM in the test on HT29 colon; 3.63 µM with SF-295 CNS; 5.35 µM in the test on UO-31 renal; 5.9 µM in the test on CCRF-CEM leukemia; 7.37 µM with RPMI-8226 leukemia; 5.93 µM with 786-0 renal. For the same compound, the figures for the TGI with SK-MEL-2 melanoma, with HCC-2998 colon and with BT-549 breast were 5.82 µM, 4.54 µM and 3.51 µM, respectively.
Turning to `Nc1nn(C(=O)Nc2ccc(Cc3ccccc3)cc2)c2ccccc12`, the GI50 in the test on HT29 colon was 2.39 µM; in the test with SF-295 CNS, 0.53 µM; in the test on UO-31 renal, 0.347 µM; in the test with RPMI-8226 leukemia, 1.86 µM; with 786-0 renal, 3.76 µM; in the test on SK-MEL-2 melanoma, 36.4 µM. The GI50 in the test on HCC-2998 colon is 4.27 µM; in the test with RXF 393 renal, 22.2 µM; in the test with BT-549 breast it was 13.5 µM. For the same compound, the TGI was 17.6 µM with HT29 colon; greater than 100 µM in the test on SF-295 CNS; greater than 100 µM in the test with UO-31 renal; 25.8 µM in the test with RPMI-8226 leukemia; 26.2 µM in the test on 786-0 renal; greater than 100 µM in the test on SK-MEL-2 melanoma. Moreover, the TGI in the test with HCC-2998 colon was 35.9 µM; in the test on RXF 393 renal, 58.2 µM; in the test on BT-549 breast, 39.6 µM.
For the compound `CNC(=S)N/N=C(/C)CCC/C(C)=N/NC(=S)NC`, the TGI in the test on HT29 colon, in the test on SF-295 CNS, in the test with UO-31 renal, with RPMI-8226 leukemia, with 786-0 renal and in the test with SK-MEL-2 melanoma was greater than 100 µM throughout. The TGI with RXF 393 renal was greater than 50.3 µM; in the test with BT-549 breast, greater than 100 µM.
For the compound `Cc1ccc(C2CC(c3cccc(Nc4ccncc4)c3)=NN2c2ccc(Cl)cc2)cc1` (stereo unspecified), the GI50 in the test with HT29 colon is 1.86 µM; with SF-295 CNS it was 1.79 µM; with UO-31 renal, 1.35 µM; in the test on CCRF-CEM leukemia, 2.64 µM; in the test with 786-0 renal, 1.71 µM; with HCC-2998 colon, 1.69 µM. Further, the GI50 was 1.59 µM in the test on RXF 393 renal and 1.81 µM with BT-549 breast. Further, the TGI in the test with HT29 colon turned out to be 3.9 µM; in the test on SF-295 CNS it was 3.19 µM; with UO-31 renal it was 2.63 µM; with CCRF-CEM leukemia it was 7.66 µM; with 786-0 renal it was 3.16 µM; with HCC-2998 colon it was 3.14 µM. In addition, the TGI was 2.97 µM in the test with RXF 393 renal and 3.4 µM with BT-549 breast.
Regarding `C#Cc1ccc(-n2c(/C=C/c3ccc4ccccc4n3)nc3ncccc3c2=O)cc1`, the GI50 was 0.375 µM in the test with HT29 colon; 0.386 µM with SF-295 CNS; 0.403 µM with UO-31 renal; 0.575 µM with 786-0 renal; 0.306 µM with SK-MEL-2 melanoma; 0.64 µM with HCC-2998 colon. Besides, the results for the GI50 with RXF 393 renal and in the test on BT-549 breast were 0.269 µM and 0.514 µM, respectively. In addition, the TGI is 1.13 µM in the test on HT29 colon; 1.52 µM with SF-295 CNS; 1.8 µM in the test on UO-31 renal; 2.24 µM in the test on 786-0 renal; 0.785 µM in the test with SK-MEL-2 melanoma; 1.79 µM with HCC-2998 colon. The TGI was determined as 0.792 µM with RXF 393 renal and 2.19 µM in the test with BT-549 breast.
Regarding `Cn1c(-c2ccccc2)c/c(=N\NS(C)(=O)=O)c2cc(S(=O)(=O)O)ccc21`, the TGI in the test with HT29 colon, with SF-295 CNS, in the test on UO-31 renal, with CCRF-CEM leukemia, in the test on RPMI-8226 leukemia and in the test with 786-0 renal was greater than 100 µM each time. Moreover, the TGI in the test with SK-MEL-2 melanoma, in the test on HCC-2998 colon and with RXF 393 renal was greater than 100 µM in each case.
Turning to `O=C(CN/C=C\C(=O)c1cc(Cl)ccc1Cl)c1ccccc1`, the GI50 in the test with HT29 colon is 31.6 µM; in the test with SF-295 CNS, 20.4 µM; in the test on UO-31 renal it was 34.4 µM; with CCRF-CEM leukemia, 18.5 µM; with 786-0 renal, 36.1 µM; with HCC-2998 colon, 19.3 µM. In addition, the GI50 is 22.9 µM in the test with RXF 393 renal and 27.4 µM with BT-549 breast. In addition, the TGI is greater than 100 µM in the test on HT29 colon; 50.7 µM with SF-295 CNS; greater than 100 µM in the test with UO-31 renal; 36.7 µM in the test with CCRF-CEM leukemia; greater than 100 µM in the test on 786-0 renal; 47.2 µM with HCC-2998 colon. In addition, the TGI in the test on RXF 393 renal was determined as 67.5 µM; with BT-549 breast it was 74.7 µM.
Take `CCC1=C[C@H]2CN(CCc3c([nH]c4ccccc34)[C@@](C(=O)OC)(c3cc4c(cc3OC)N(C)[C@H]3[C@@](O)(C(=O)OC)[C@H](OC(C)=O)[C@]5(CC)[C@@H]6C[C@@H]6CN6CC[C@]43[C@@H]65)C2)C1`: the GI50 with HT29 colon is 0.0113 µM; with SF-295 CNS, 0.0142 µM; in the test with UO-31 renal it was 0.175 µM; with CCRF-CEM leukemia, 0.0495 µM; in the test with 786-0 renal, 0.0315 µM; with SK-MEL-2 melanoma it was 0.0752 µM. In addition, the GI50 in the test with HCC-2998 colon was 0.084 µM; in the test with BT-549 breast, 0.106 µM. Further, the TGI in the test with HT29 colon worked out at 2.91 µM; with SF-295 CNS, 3.15 µM; with UO-31 renal, 5.02 µM; in the test on CCRF-CEM leukemia, 4.48 µM; with 786-0 renal it was 3.07 µM; in the test with SK-MEL-2 melanoma, 4.64 µM. The TGI with HCC-2998 colon stood at 3.07 µM; in the test on BT-549 breast it was 4.29 µM.
Take `O=C(O)c1cn(C2CC2)c2cc(N3CCN(C(=O)Nc4nc(-c5ccc(Cl)cc5)cs4)CC3)c(F)cc2c1=O`: the GI50 in the test with HT29 colon was 2.99 µM; in the test with SF-295 CNS, 3.03 µM; with UO-31 renal it was 0.596 µM; in the test on CCRF-CEM leukemia, 1.22 µM; in the test on 786-0 renal, 2.32 µM; in the test on SK-MEL-2 melanoma, 2.4 µM. In addition, the GI50 with HCC-2998 colon was 4.09 µM; in the test on RXF 393 renal it was 3.37 µM; in the test on BT-549 breast, 0.934 µM. In addition, the TGI was greater than 100 µM in the test with HT29 colon; 23.7 µM in the test on SF-295 CNS; 33.7 µM with UO-31 renal; greater than 100 µM in the test with CCRF-CEM leukemia; 22.5 µM in the test with 786-0 renal; 6.85 µM in the test with SK-MEL-2 melanoma. Also, the TGI was greater than 100 µM with HCC-2998 colon, 54.6 µM with RXF 393 renal and 25.5 µM with BT-549 breast.
In the case of `COc1ccc2oc(-c3ccc(Cl)cc3)c(N3CCN(C)CC3)c2c1`, the GI50 in the test with HT29 colon was 1.42 µM; in the test with SF-295 CNS, 2.06 µM; in the test on UO-31 renal, 1.05 µM; in the test with CCRF-CEM leukemia, 1.71 µM; in the test on RPMI-8226 leukemia it was 1.25 µM; in the test on 786-0 renal it was 1.75 µM. Moreover, the GI50 was 1.8 µM with SK-MEL-2 melanoma, 2.02 µM in the test on HCC-2998 colon and 6.39 µM in the test on BT-549 breast. The TGI with HT29 colon was determined as 3.32 µM; with SF-295 CNS it was 5.12 µM; with UO-31 renal, 2.71 µM; with CCRF-CEM leukemia, 4.06 µM; in the test on RPMI-8226 leukemia, 4.72 µM; in the test on 786-0 renal, 3.42 µM. Besides, the TGI with SK-MEL-2 melanoma came to 4.4 µM; in the test on HCC-2998 colon, 4.13 µM; in the test with BT-549 breast, 20.7 µM.
For the compound `O=C(/C=C/c1ccc2c(c1)OCO2)c1ccccc(=O)c1O`, the TGI was 26.3 µM in the test with HT29 colon; greater than 100 µM with UO-31 renal; 3.93 µM in the test on CCRF-CEM leukemia; greater than 100 µM with RPMI-8226 leukemia; greater than 100 µM with 786-0 renal; 72.7 µM in the test on SK-MEL-2 melanoma. In the test on BT-549 breast, this compound displayed a TGI of 47.6 µM.
`O=c1nc2[nH]nc(-c3ccccc3)c2n[nH]1`: the TGI with HT29 colon was greater than 100 µM; with SF-295 CNS, greater than 100 µM; with UO-31 renal, greater than 100 µM; in the test with CCRF-CEM leukemia, greater than 100 µM; in the test with RPMI-8226 leukemia, greater than 100 µM; in the test with 786-0 renal it was 52 µM. Besides, the TGI with SK-MEL-2 melanoma, in the test with HCC-2998 colon and with RXF 393 renal was greater than 100 µM in each case.
For `CC(C)(C)C1CCN(C(=O)c2ccccc2)CC1`, the TGI with HT29 colon, in the test on SF-295 CNS, in the test on UO-31 renal, in the test on CCRF-CEM leukemia, with RPMI-8226 leukemia and in the test with 786-0 renal was greater than 100 µM each time. Moreover, the TGI with SK-MEL-2 melanoma, in the test with HCC-2998 colon and with RXF 393 renal was greater than 100 µM throughout.
